Source: US10426772B2, “Use of ergot alkaloids as an anthelmintic agent” (priority 2016, dated 2019)
Where two headings read alike, the source gives them in different places.

Legend:
Sm.5HTR [1] = target: Sm.5HTR (Schistosoma mansoni, UniProt G4V5G4); assay type: cell-based; details: for activity at Sm.5HTR, in words: antagonist screen, FIG. 7
Method: (§1) HEK293 cells (ATCC CRL-1573.3) were cultured in DMEM supplemented with 10% fetal bovine serum (FBS), penicillin (100 units/mL), streptomycin (100 μg/mL), and L-glutamine (290 μg/mL). Cells were transiently transfected (ViaFect, Promega) as per the manufacturer's protocol at a density of 2×10^6 cells per T-25 cell-culture flask. Cells were transfected with plasmids encoding GloSensor (Promega) and either Sm.5HTR, (Smp_126730, GenBank accession number KF444051.1) or Sm.5HTRL (KX150867), both GPCRs being codon optimized for mammalian expression, or Hs.5HT7a (GenBank accession number NM_000872.4, R&D Systems) subcloned into pCS2(−). Cell culture reagents were from Invitrogen. Epitope tagged constructs were used to verify expression, and untagged constructs used for all luminescence assays.
(§2) For assays performed on adherent cells, HEK-293 cells were transferred one day post transfection to 96 well, solid white plates (Corning, cat #3917) coated with 0.01% poly-L-lysine (Sigma Aldrich) at a density of 5×10^4 cells/well in DMEM supplemented with 1% dialyzed FBS (Gibco). After overnight culture (37° C./5% CO2), media was decanted and replaced with 100 μL/well HBSS supplemented with 0.1% BSA, 20 mM HEPES (pH 7.4) and GloSensor™ reagent. Plates were allowed to equilibrate at room temperature for two hours prior to performing luminescence assays (GloMax-Multi Detection System plate reader, Promega). Conditions for individual assays were described as per figure legends. The standard assay to detect changes in cAMP utilized the F22 sensor in media supplemented with IBMX (200 μM). Ligands were added at a concentration of 20× per well for experiments (i.e., 5 μl of drug solution added to 100 μL of cells). […] For the resazurin reduction assay for cellular viability, cells were incubated with resazurin (final concentration, 10 μM) and tested ligands with fluorescence measurements (560 nm excitation/590 nm emission) made at 1.5 hours intervals.
(§3) The protocol for screening is shown schematically in FIG. 5A. HEK293 cells transiently transfected with either the human 5HT7 receptor (Hs.5HT7R) or the schistosome receptor (Sm.5HTR) were exposed to test ligands in a 96-well plate format. […] Luminescence was then read at a fixed time point (t=60 minutes, FIG. 5A). Hits were assigned as compounds that evoked a ≥50% decrease in luminescence output at the fixed time sampling point (FIG. 5B).

Sm.5HTR [2] = target: Sm.5HTR (Schistosoma mansoni, UniProt A0A173FEI8); experiment: cell-based
Method: HEK293 cells (ATCC CRL-1573.3) were cultured in growth media consisting of DMEM supplemented with GlutaMAX (Gibco cat #10566016)+10% heat inactivated fetal bovine serum and penicillin-streptomycin (100 units/mL, ThermoFisher). Stable cell lines for the pGloSensor-22F cAMP Plasmid (Promega) and schistosome 5HTRs in pcDNA3.1(−) were selected with hygromycin (200 μg/mL) and G418 (400 μg/mL). The correct identity of each stably expressed sequence was verified by isolating total RNA from each stable line (TRIzol Reagent, Ambion) and amplifying the sequence of interest with gene specific primers flanking the 5′ and 3′ regions of the cds (SuperScript® III One-Step RT-PCR System, Invitrogen). PCR products were ligated into a TA cloning vector (pGEM-T Easy, Promega) and sequenced.
HEK293 lines stably expressing both the 22F cAMP sensor and Sm.5HTR were cultured in growth media supplemented with 10% dialyzed FRS. For cAMP assays in 96 well format, cells cultured in T-75 flasks were trypsinized (TrypLE Express, Gibco) and plated in solid white 96 well plates (Costar cat #3917) the day prior to assay at a density of 2.5×10^4 cells/well. The following day media was removed and replaced with assay buffer consisting of HBSS buffered with HEPES (20 mM, pH 7.4)+BSA (0.1% w/v) and D-luciferin sodium salt (1 mg/mL, Gold Biotechnology). Plates were equilibrated at room temperature for 1 hour, at which point 3-Isobutyl-1-methylxanthine (IBMX 200 μM, Sigma Aldrich) was added. Plates were equilibrated a further 30 minutes prior to test compound addition. […] Readings performed in 384 well format were modified so that cells were assayed in suspension. Cells were grown to 70% confluence in T-75 flasks, trypsinized and pelleted (300 RCF×5 minutes). Media was removed and cells were resuspended in 25 mL assay buffer supplemented with IBMX (200 μM). A 96 channel semi-automated pipet (Eppendorf epMotion 96) delivered 55 μL of cell suspension per well (5000 cells/well) into solid white 384 plates (Corning 3574).

adult schistosomes = experiment: Egg laying assay, adult schistosome pairs in vitro; assay type: cell-based, Schistosoma mansoni; details: serotonin 100 μM, forskolin 100 μM, LSD 10 μM, nuciferine 10 μM, ergotamine 5 μM (FIG. 19F); eggs per worm pair/day over five days
Text: Female Swiss Webster mice infected with S. mansoni cerceria (NMRI strain) were sacrificed 49 days post infection by CO2 euthanasia. Adult schistosomes were recovered by perfusion with a solution of 0.85% sodium chloride+0.75% sodium citrate and dissection of the mesenteric vasculature. Harvested schistosomes were washed in RPMI 1640 Medium with GlutaMAX+5% heat inactivated FBS (Gibco) and Penicillin-Streptomycin (final concentration 100 units/mL, ThermoFisher cat #15140122).
For egg laying assays, adult schistosomes were transferred to 24 well plates the day after harvesting from mice (5 worm pairs in 2 mL media per well). Eggs were counted under a stereomicroscope daily, after which worms were transferred to a new well with fresh drug containing media. Egg counts were recorded for five days, and data processed as the mean number of eggs laid per worm pair/day. Measurements of egg dimensions were quantified using the “analyze>measure” function in ImageJ to record the length and width of individual eggs.

Hs.5HT7R = target: T1, Hs.5HT7R (Homo sapiens, UniProt P34969); experiment: GloSensor cAMP assay, HEK293 cells transiently transfected with Hs.5HT7R; assay type: cell-based; details: inhibition of cAMP generation
T1 construct: host or cells: HEK293 (ATCC CRL-1573.3), transient, pCS2(−), co-transfected with GloSensor
Method: as §1, §2, §3

[3] = system: S. mansoni schistosomules; experiment: Schistosomule contractility assay; assay type: cell-based; details: Schistosoma mansoni, read-out: inhibition of 5-HT evoked contractility
Method: FIGS. 14A-14F. […] Effects of selected ligands on schistosomules. […] A contractile cycle is defined when a deviation of ≥20% of the average body length (dashed lines) occurs.
Biomphalaria glabrata (M-line) snails exposed to Schistosoma mansoni miracidia (Strain PR-1) were obtained from BEI Resources (Cat. number NR-21961) and cercaria were shed following exposure to light (1.5 hours). Cercaria were manually transformed into schistosomula by vortexing (3×45 seconds, each separated by 3 minutes on ice) and tails were removed by gradient centrifugation (24 mL Percoll, 4 mL 10×EMEM, 1.5 ml penicillin-streptomycin, 1 mL of 1M HEPES in 0.85% NaCl, 9.5 ml distilled water) at 500 g/15 minutes at 4° C. Supernatant containing tails was discarded, and schistosomules were resuspended in Basch media and incubated (37° C., 5% CO2) overnight before conducting mobility assays. For contractility experiments, somules were incubated in 5-HT free Basch media to resolve a basal contractility rate. […] Schistosomules were incubated in 24 well plates (about 200 schistosomules/0.5 mL media per well) for 30 minutes (37° C./5% CO2) prior to acquiring videos of schistosome movement (1 minute recordings/well) using a Nikon Coolpix 5700 camera affixed to a Nikon Eclipse TS100 microscope (10× objective). The WrmTrck plugin for ImageJ was used to quantify worm mobility (El-Shehabi et al., 2012). Briefly, the major axis of each schistosomule body length was extracted from the raw output of WrmTrck and an average length was determined for the duration of the recording. Contractions were quantified by determining the number of episodes during which the worm body length deviated from the average by over 20%. S. mansoni protocols were approved by the Iowa State University Institutional Biosafety Committee.

[4] = antagonism of 5-HT evoked cAMP, FIGS. 7, 12, 13

Sequence of Sm.5HTR (Schistosoma mansoni, UniProt A0A173FEI8) (A0A173FEI8 entry or part of it): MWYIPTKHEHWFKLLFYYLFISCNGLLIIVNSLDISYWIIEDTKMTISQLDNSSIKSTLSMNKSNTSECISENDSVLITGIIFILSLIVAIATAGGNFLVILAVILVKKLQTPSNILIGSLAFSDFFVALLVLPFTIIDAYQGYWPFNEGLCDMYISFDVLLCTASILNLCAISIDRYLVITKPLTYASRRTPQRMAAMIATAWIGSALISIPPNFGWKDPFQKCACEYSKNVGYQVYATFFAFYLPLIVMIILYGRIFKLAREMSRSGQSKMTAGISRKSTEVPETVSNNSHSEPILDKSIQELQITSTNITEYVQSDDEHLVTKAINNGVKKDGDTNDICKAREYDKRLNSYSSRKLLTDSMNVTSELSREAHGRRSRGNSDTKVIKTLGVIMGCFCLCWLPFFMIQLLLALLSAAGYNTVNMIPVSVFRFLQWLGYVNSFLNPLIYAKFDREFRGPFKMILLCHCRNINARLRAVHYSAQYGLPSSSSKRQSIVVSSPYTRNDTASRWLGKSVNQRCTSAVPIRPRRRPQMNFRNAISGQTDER
Sequence of Sm.5HTR (Schistosoma mansoni, UniProt G4V5G4) (G4V5G4 entry or part of it): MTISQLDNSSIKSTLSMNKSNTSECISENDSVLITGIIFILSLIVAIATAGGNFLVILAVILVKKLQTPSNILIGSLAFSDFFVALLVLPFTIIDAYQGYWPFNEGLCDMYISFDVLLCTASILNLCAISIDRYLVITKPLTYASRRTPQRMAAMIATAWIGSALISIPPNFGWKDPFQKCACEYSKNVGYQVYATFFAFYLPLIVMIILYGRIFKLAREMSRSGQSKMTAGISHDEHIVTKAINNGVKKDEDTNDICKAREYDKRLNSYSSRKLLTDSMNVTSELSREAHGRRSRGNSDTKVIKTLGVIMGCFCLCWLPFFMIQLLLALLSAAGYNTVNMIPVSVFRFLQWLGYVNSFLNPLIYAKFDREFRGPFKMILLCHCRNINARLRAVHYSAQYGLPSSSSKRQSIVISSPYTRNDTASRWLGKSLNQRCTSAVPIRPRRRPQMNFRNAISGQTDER
T1 sequence (P34969 1-445 isoform P34969-2): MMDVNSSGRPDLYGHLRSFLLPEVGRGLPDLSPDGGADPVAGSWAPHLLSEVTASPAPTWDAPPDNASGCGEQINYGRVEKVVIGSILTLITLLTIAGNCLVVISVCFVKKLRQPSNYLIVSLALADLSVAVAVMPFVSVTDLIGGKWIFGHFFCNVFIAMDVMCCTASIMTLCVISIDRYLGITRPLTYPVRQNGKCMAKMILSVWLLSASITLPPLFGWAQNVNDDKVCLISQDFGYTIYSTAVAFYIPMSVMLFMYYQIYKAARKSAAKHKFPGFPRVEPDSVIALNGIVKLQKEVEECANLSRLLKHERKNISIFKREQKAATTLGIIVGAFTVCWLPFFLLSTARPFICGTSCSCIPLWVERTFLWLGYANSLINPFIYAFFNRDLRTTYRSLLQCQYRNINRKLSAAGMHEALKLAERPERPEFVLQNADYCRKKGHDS

## CCN(CC)C(=O)[C@@H]1C=C2c3cccc4[nH]cc(c34)C[C@H]2N(C)C1 [LSD, lysergic acid diethylamide]
Sm.5HTR [1]; >10 μM
  inhibition of 5-HT evoked cAMP generation at higher concentrations: almost complete inhibition
Sm.5HTR [1]; FIG. 10A
  agonist efficacy at Sm.5HTR, in words: no efficacy
Sm.5HTR [1]; antagonism of 5-HT evoked cAMP accumulation, FIG. 10F, read-out: affinity constants (KB), Schild regression analysis
  Kb: 629 nM
Sm.5HTR [1]; increasing doses of ligand, FIGS. 10B-D
  nature of antagonism: right-shift in the 5-HT dose-response relationship: competitive antagonism
Sm.5HTR [2]
  EC50: 250 ± 150 nM
Sm.5HTR [2]; HEK293, read-out: Sm.5HTR Emax
  Emax: 40 ± 26%
Adult schistosomes
  decrease of egg laying: no effect

## CCN(CC)C(=O)N[C@H]1C[C@@H]2c3cccc4[nH]cc(c34)C[C@H]2N(C)C1 [terguride]
Sm.5HTR [2]; 5-HT 500 nM, read-out: Sm.5HTR IC50 (antagonist)
  IC50: 400 ± 50 nM
Sm.5HTR [2]; FIG. 18C
  agonist activity at Sm.5HTR, in words: completely eliminates agonist activity

## C=C[C@@]1(C)CC(=O)[C@]2(O)[C@@]3(C)[C@@H](O)CCC(C)(C)[C@@H]3[C@H](O)[C@H](OC(C)=O)[C@@]2(C)O1 [forskolin]
Adult schistosomes
  decrease of egg laying: 62%

## COc1cc2c(cc1OC)C1CC(=O)C(CC(C)C)CN1CC2 (centres unmarked) [tetrabenazine]
Sm.5HTR [1]
  selectivity Sm.5HTR versus Hs.5HT7R (IC50 (Hs.5HT7R)/IC50 (Sm.5HTR)), in words: selectivity for Sm.5HTR retained
Sm.5HTR [1]; inhibition of cAMP generation
  potency (IC50) at Sm.5HTR, lower right quadrant of FIG. 13: sub-μM potency
Hs.5HT7R
  potency (IC50) at Hs.5HT7R, lower right quadrant of FIG. 13: supra-μM potency
[3]
  inhibition at 100 µM: ~50%

## COc1ccc2cc3[n+](cc2c1OC)CCc1cc2c(cc1-3)OCO2 [berberine]
Sm.5HTR [1]; [4]
  selectivity Sm.5HTR versus Hs.5HT7R (IC50 (Hs.5HT7R)/IC50 (Sm.5HTR)), in words: decreased potency and selectivity for Sm.5HTR

## COc1cc2c(cc1OC)-c1cc3ccc(OC)c(OC)c3c[n+]1CC2 [palmatine]
Sm.5HTR [1]; [4]
  selectivity Sm.5HTR versus Hs.5HT7R (IC50 (Hs.5HT7R)/IC50 (Sm.5HTR)), in words: decreased potency and selectivity for Sm.5HTR

## COc1cc2c3c(c1OC)-c1ccccc1C[C@H]3N(C)CC2 [nuciferine]
Adult schistosomes
  decrease of egg laying: no effect

## C[C@@H](CO)NC(=O)[C@@H]1C=C2c3cccc4[nH]cc(c34)C[C@H]2N(C)C1 [ergometrine]
Sm.5HTR [2]; HEK293, agonist read, 45 minutes, read-out: Sm.5HTR Emax
  Emax: 61 ± 4%

## CC1CCN(CC[C@H]2CCCN2S(=O)(=O)c2cccc(O)c2)CC1 [SB269970]
Sm.5HTR [1]
  activity at Sm.5HTR, in words: modest effects on Sm.5HTR
Sm.5HTR [1]; listed as SB 269970
  activity at Sm.5HTR, in words: completely lacked activity at Sm.5HTR
